According to the supplement of paper PMC10307832:

Legend:
Experiment in all cases: relative viability (nuclei count vs DMSO), 5 days (fraction); higher = more cells survive
ABC-1 = test system: ABC-1
In short: (§1)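 Relative viability was taken as the ratio of nuclei in treated wells to nuclei in vehicle wells. Lung cancer cell lines in 1536-well plates received compounds by pin tool one day after seeding, either one drug alone or a fixed anchor-drug dose plus five library-drug doses (not always all listed) in √10 steps. Nuclei were counted on 4× images after 5 days of treatment, and values are medians of duplicate plates.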

CAL-12T = test system: CAL-12T
In short: as §1

COR-L 105 = test system: COR-L 105
In short: as §1

ChaGo-K-1 = test system: ChaGo-K-1
In short: as §1

EMC-BAC-2 = test system: EMC-BAC-2
In short: as §1

EPLC-272H = test system: EPLC-272H
In short: as §1

HCC-15 = test system: HCC-15
In short: as §1

HCC-78 = test system: HCC-78
In short: as §1

HOP-62 = test system: HOP-62
In short: as §1

LXF-289 = test system: LXF-289
In short: as §1

NCI-H1666 = test system: NCI-H1666
In short: as §1

NCI-H1755 = test system: NCI-H1755
In short: as §1

NCI-H1915 = test system: NCI-H1915
In short: as §1

NCI-H1975 = test system: NCI-H1975
In short: as §1

NCI-H2023 = test system: NCI-H2023
In short: as §1

NCI-H2085 = test system: NCI-H2085
In short: as §1

NCI-H2126 = test system: NCI-H2126
In short: as §1

NCI-H3122 = test system: NCI-H3122
In short: as §1

NCI-H322M = test system: NCI-H322M
In short: as §1

NCI-H358 = test system: NCI-H358
In short: as §1

NCI-H441 = test system: NCI-H441
In short: as §1

UMC-11 = test system: UMC-11
In short: as §1

O=c1cc(-c2cccc3c2Sc2ccccc2S3)oc(N2CCOCC2)c1 + O=C(CCCCCCC(=O)Nc1ccccc1)NO [Vorinostat] (partner 1 µM)
relative viability (ABC-1; first compound 0.08 µM): 1.13 | relative viability (ABC-1; first compound 0.253 µM): 1.1 | relative viability (ABC-1; first compound 0.8 µM): 1.24 | relative viability (ABC-1; first compound 2.53 µM): 1.15 | relative viability (ABC-1; first compound 8 µM): 0.972 | relative viability (CAL-12T; first compound 0.08 µM): 0.677 | relative viability (CAL-12T; first compound 0.253 µM): 0.782 | relative viability (CAL-12T; first compound 0.8 µM): 0.765 | relative viability (CAL-12T; first compound 2.53 µM): 0.799 | relative viability (CAL-12T; first compound 8 µM): 0.699 | relative viability (COR-L 105; first compound 0.08 µM): 0.782 | relative viability (COR-L 105; first compound 0.253 µM): 0.828 | relative viability (COR-L 105; first compound 0.8 µM): 0.751 | relative viability (COR-L 105; first compound 2.53 µM): 0.795 | relative viability (COR-L 105; first compound 8 µM): 1.1 | relative viability (ChaGo-K-1; first compound 0.08 µM): 0.765 | relative viability (ChaGo-K-1; first compound 0.253 µM): 0.859 | relative viability (ChaGo-K-1; first compound 0.8 µM): 0.876 | relative viability (ChaGo-K-1; first compound 2.53 µM): 0.753 | relative viability (ChaGo-K-1; first compound 8 µM): 0.847 | relative viability (EMC-BAC-2; first compound 0.08 µM): 0.35 | relative viability (EMC-BAC-2; first compound 0.253 µM): 0.471 | relative viability (EMC-BAC-2; first compound 0.8 µM): 0.524 | relative viability (EMC-BAC-2; first compound 2.53 µM): 0.607 | relative viability (EMC-BAC-2; first compound 8 µM): 0.48 | relative viability (EPLC-272H; first compound 0.08 µM): 0.449 | relative viability (EPLC-272H; first compound 0.253 µM): 0.363 | relative viability (EPLC-272H; first compound 0.8 µM): 0.291 | relative viability (EPLC-272H; first compound 2.53 µM): 0.629 | relative viability (EPLC-272H; first compound 8 µM): 0.441 | relative viability (HCC-15; first compound 0.08 µM): 0.906 | relative viability (HCC-15; first compound 0.253 µM): 0.952 | relative viability (HCC-15; first compound 0.8 µM): 0.82 | relative viability (HCC-15; first compound 2.53 µM): 0.722 | relative viability (HCC-15; first compound 8 µM): 0.808 | relative viability (HCC-78; first compound 0.08 µM): 0.478 | relative viability (HCC-78; first compound 0.253 µM): 0.529 | relative viability (HCC-78; first compound 0.8 µM): 0.376 | relative viability (HCC-78; first compound 2.53 µM): 0.39 | relative viability (HCC-78; first compound 8 µM): 0.474 | relative viability (HOP-62; first compound 0.08 µM): 0.646 | relative viability (HOP-62; first compound 0.253 µM): 0.832 | relative viability (HOP-62; first compound 0.8 µM): 0.691 | relative viability (HOP-62; first compound 2.53 µM): 0.661 | relative viability (HOP-62; first compound 8 µM): 0.664 | relative viability (LXF-289; first compound 0.08 µM): 0.902 | relative viability (LXF-289; first compound 0.253 µM): 0.784 | relative viability (LXF-289; first compound 0.8 µM): 0.782 | relative viability (LXF-289; first compound 2.53 µM): 0.661 | relative viability (LXF-289; first compound 8 µM): 0.819 | relative viability (NCI-H1666; first compound 0.08 µM): 1 | relative viability (NCI-H1666; first compound 0.253 µM): 1.15 | relative viability (NCI-H1666; first compound 0.8 µM): 0.963 | relative viability (NCI-H1666; first compound 2.53 µM): 1.02 | relative viability (NCI-H1666; first compound 8 µM): 1.06 | relative viability (NCI-H1755; first compound 0.08 µM): 0.734 | relative viability (NCI-H1755; first compound 0.253 µM): 0.797 | relative viability (NCI-H1755; first compound 0.8 µM): 0.795 | relative viability (NCI-H1755; first compound 2.53 µM): 0.709 | relative viability (NCI-H1755; first compound 8 µM): 0.8 | relative viability (NCI-H1915; first compound 0.08 µM): 0.549 | relative viability (NCI-H1915; first compound 0.253 µM): 0.492 | relative viability (NCI-H1915; first compound 0.8 µM): 0.592 | relative viability (NCI-H1915; first compound 2.53 µM): 0.517 | relative viability (NCI-H1915; first compound 8 µM): 0.562 | relative viability (NCI-H1975; first compound 0.08 µM): 0.687 | relative viability (NCI-H1975; first compound 0.253 µM): 0.827 | relative viability (NCI-H1975; first compound 0.8 µM): 0.707 | relative viability (NCI-H1975; first compound 2.53 µM): 0.671 | relative viability (NCI-H1975; first compound 8 µM): 0.749 | relative viability (NCI-H2023; first compound 0.08 µM): 0.707 | relative viability (NCI-H2023; first compound 0.253 µM): 0.752 | relative viability (NCI-H2023; first compound 0.8 µM): 0.718 | relative viability (NCI-H2023; first compound 2.53 µM): 0.583 | relative viability (NCI-H2023; first compound 8 µM): 0.451 | relative viability (NCI-H2085; first compound 0.08 µM): 0.739 | relative viability (NCI-H2085; first compound 0.253 µM): 0.825 | relative viability (NCI-H2085; first compound 0.8 µM): 0.687 | relative viability (NCI-H2085; first compound 2.53 µM): 0.759 | relative viability (NCI-H2085; first compound 8 µM): 0.612 | relative viability (NCI-H2126; first compound 0.08 µM): 0.722 | relative viability (NCI-H2126; first compound 0.253 µM): 0.781 | relative viability (NCI-H2126; first compound 0.8 µM): 0.792 | relative viability (NCI-H2126; first compound 2.53 µM): 0.823 | relative viability (NCI-H2126; first compound 8 µM): 0.74 | relative viability (NCI-H3122; first compound 0.08 µM): 0.99 | relative viability (NCI-H3122; first compound 0.253 µM): 1.2 | relative viability (NCI-H3122; first compound 0.8 µM): 1.09 | relative viability (NCI-H3122; first compound 2.53 µM): 0.93 | relative viability (NCI-H3122; first compound 8 µM): 1.05 | relative viability (NCI-H322M; first compound 0.08 µM): 0.839 | relative viability (NCI-H322M; first compound 0.253 µM): 1.01 | relative viability (NCI-H322M; first compound 0.8 µM): 0.948 | relative viability (NCI-H322M; first compound 2.53 µM): 0.825 | relative viability (NCI-H322M; first compound 8 µM): 0.867 | relative viability (NCI-H358; first compound 0.08 µM): 0.725 | relative viability (NCI-H358; first compound 0.253 µM): 0.651 | relative viability (NCI-H358; first compound 0.8 µM): 0.705 | relative viability (NCI-H358; first compound 2.53 µM): 0.71 | relative viability (NCI-H358; first compound 8 µM): 0.632 | relative viability (NCI-H441; first compound 0.08 µM): 0.921 | relative viability (NCI-H441; first compound 0.253 µM): 1.01 | relative viability (NCI-H441; first compound 0.8 µM): 1.14 | relative viability (NCI-H441; first compound 2.53 µM): 0.838 | relative viability (NCI-H441; first compound 8 µM): 0.935 | relative viability (UMC-11; first compound 0.08 µM): 0.312 | relative viability (UMC-11; first compound 0.253 µM): 0.454 | relative viability (UMC-11; first compound 0.8 µM): 0.362 | relative viability (UMC-11; first compound 2.53 µM): 0.394 | relative viability (UMC-11; first compound 8 µM): 0.336
